Reference: patent publication US6596721B2, “Stable crystalline (6R) -tetrahydrofolic acid” (Eprova AG, priority 1994, dated 2003)

Test: Stability on storage under severe conditions at 60° C. in the air (remaining tetrahydrofolic acid content by HPLC, colour)
Format: physicochemical
Details: for Colour / discoloration: after a prolonged test period at 60° C. in the air
Experimental: The tetrahydrofolic acid contents and the isomer contents given in the following examples were in each case determined by HPLC. All tetrahydrofolic acid contents are based on the anhydrous substance.
To determine the stability of crystalline (6S)- and (6R)-tetrahydrofolic acid, the substances together with comparison samples were stored under severe conditions at 60° C. in the air. The remaining tetrahydrofolic acid content was measured at periodic intervals and is shown in comparison with the initial value.
In contrast, the other products which are included for comparison reasons discolor rapidly to a high degree.
The substances employed for the stability tests were prepared as follows:
crystalline (6S)-tetrahydrofolic acid as in Example 6 of the present patent application crystalline (6R)-tetrahydrofolic acid as in Example 9 of the present patent application “Yamanouchi's crystalline (6R,S)-tetrahydrofolic acid” as in DE-OS 2 323 124, Example 3
amorphous (6S)-tetrahydrofolic acid (6S)-tetrahydrofolic acid is dissolved in acetic acid and precipitated using diethyl ether
amorphous (6R)-tetrahydrofolic acid (6R)-tetrahydrofolic acid is dissolved in acetic acid and precipitated using diethyl ether
amorphous (6R,S)-tetrahydrofolic acid (6R,S)-tetrahydrofolic acid is dissolved in acetic acid and precipitated using diethyl ether.

[1] = 0 days (initial value), 60° C. in air

Row | Compound | Remaining tetrahydrofolic acid content in comparison with the initial value [1] [%] | Remaining tetrahydrofolic acid content in comparison with the initial value (2 days at 60° C. in air) [%] | Remaining tetrahydrofolic acid content in comparison with the initial value (13 days at 60° C. in air) [%] | Remaining tetrahydrofolic acid content in comparison with the initial value (21 days at 60° C. in air) [%] | Remaining tetrahydrofolic acid content in comparison with the initial value (57 days at 60° C. in air) [%] | Remaining tetrahydrofolic acid content in comparison with the initial value (6 days at 60° C. in air) [%] | Remaining tetrahydrofolic acid content in comparison with the initial value (28 days at 60° C. in air) [%] | Remaining tetrahydrofolic acid content in comparison with the initial value (360 days at 60° C. in air) [%] | Colour / discoloration | Remaining tetrahydrofolic acid content in comparison with the initial value (0 h) [%] | Remaining tetrahydrofolic acid content in comparison with the initial value (48 h) [%] | Remaining tetrahydrofolic acid content in comparison with the initial value (144 h) [%] | Remaining tetrahydrofolic acid content in comparison with the initial value (312 h) [%] | Remaining tetrahydrofolic acid content in comparison with the initial value (504 h) [%] | Remaining tetrahydrofolic acid content in comparison with the initial value (1368 h) [%]
1 | Nc1nc2c(c(=O)[nH]1)N[C@@H](CNc1ccc(C(=O)N[C@@H](CCC(=O)O)C(=O)O)cc1)CN2 [Amorphous (6S)-tetrahydrofolic acid, (6S)-tetrahydrofolic acid] | 100.0 | 60.4 | 13.7 | 7.9 |  |  |  |  |  |  |  |  |  |  | 
2 | Nc1nc2c(c(=O)[nH]1)N[C@H](CNc1ccc(C(=O)N[C@@H](CCC(=O)O)C(=O)O)cc1)CN2 [amorphous (6R)-tetrahydrofolic acid, (6R)-tetrahydrofolic acid] | 100.0 | 70.5 | 29.1 | 21.6 | 9.8 |  |  |  |  |  |  |  |  |  | 
3 | Nc1nc2c(c(=O)[nH]1)N[C@@H](CNc1ccc(C(=O)N[C@@H](CCC(=O)O)C(=O)O)cc1)CN2 [Crystalline (6S)-tetrahydrofolic acid, (6S)-tetrahydrofolic acid] | 100.0 | 100.1 | 98.7 | 103.6 | 101.2 | 102.5 | 103.1 | 93.3 | remain very pale, almost white |  |  |  |  |  | 
4 | Nc1nc(=O)c2c([nH]1)NC[C@@H](CNc1ccc(C(=O)N[C@@H](CCC(=O)O)C(=O)O)cc1)N2 [Crystalline (6R)-tetrahydrofolic acid, N-[4-[[(2-amino-1,4,5,6,7,8-hexahydro-4-oxo-(6R)-pteridinyl)methyl]amino]benzoyl]-Lglutamic acid] |  |  |  |  |  |  |  |  | remain very pale, almost white | 100.0 | 96.4 | 96.1 | 93.3 | 92.7 | 82.0
5 | Nc1nc2c(c(=O)[nH]1)N[C@H](CNc1ccc(C(=O)N[C@@H](CCC(=O)O)C(=O)O)cc1)CN2 (mixture of isomers) [amorphous (6R,S)-tetrahydrofolic acid, (6R,S)-tetrahydrofolic acid] | 100.0 | 53.4 | 17.4 | 13.2 |  |  |  |  |  |  |  |  |  |  | 
6 | Nc1nc2c(c(=O)[nH]1)N[C@H](CNc1ccc(C(=O)N[C@@H](CCC(=O)O)C(=O)O)cc1)CN2 [Yamanouchi's crystalline (6R,S)-tetrahydrofolic acid] | 100.0 | 83.6 | 48.6 | 31.0 | 13.4 |  |  |  |  |  |  |  |  |  | 
